Here are results for 2 molecules from patent publication US7820379B2, “Process for high throughput screening of CpG-based immuno-agonist/antagonist” (Coley Pharmaceutical GmbH, priority 2000, dated 2010).

One series deals with T1, murine TLR9 (Mus musculus, UniProt Q9EQU3, L378S/Q579H/T325N/T573A/T867A).
T1 construct: additional primers were designed for amplification of the complete mouse TLR9 cDNA; expressed in transfected cells
T1 sequence (Q9EQU3 26-1032 T325N/L378S/T573A/Q579H/T867A): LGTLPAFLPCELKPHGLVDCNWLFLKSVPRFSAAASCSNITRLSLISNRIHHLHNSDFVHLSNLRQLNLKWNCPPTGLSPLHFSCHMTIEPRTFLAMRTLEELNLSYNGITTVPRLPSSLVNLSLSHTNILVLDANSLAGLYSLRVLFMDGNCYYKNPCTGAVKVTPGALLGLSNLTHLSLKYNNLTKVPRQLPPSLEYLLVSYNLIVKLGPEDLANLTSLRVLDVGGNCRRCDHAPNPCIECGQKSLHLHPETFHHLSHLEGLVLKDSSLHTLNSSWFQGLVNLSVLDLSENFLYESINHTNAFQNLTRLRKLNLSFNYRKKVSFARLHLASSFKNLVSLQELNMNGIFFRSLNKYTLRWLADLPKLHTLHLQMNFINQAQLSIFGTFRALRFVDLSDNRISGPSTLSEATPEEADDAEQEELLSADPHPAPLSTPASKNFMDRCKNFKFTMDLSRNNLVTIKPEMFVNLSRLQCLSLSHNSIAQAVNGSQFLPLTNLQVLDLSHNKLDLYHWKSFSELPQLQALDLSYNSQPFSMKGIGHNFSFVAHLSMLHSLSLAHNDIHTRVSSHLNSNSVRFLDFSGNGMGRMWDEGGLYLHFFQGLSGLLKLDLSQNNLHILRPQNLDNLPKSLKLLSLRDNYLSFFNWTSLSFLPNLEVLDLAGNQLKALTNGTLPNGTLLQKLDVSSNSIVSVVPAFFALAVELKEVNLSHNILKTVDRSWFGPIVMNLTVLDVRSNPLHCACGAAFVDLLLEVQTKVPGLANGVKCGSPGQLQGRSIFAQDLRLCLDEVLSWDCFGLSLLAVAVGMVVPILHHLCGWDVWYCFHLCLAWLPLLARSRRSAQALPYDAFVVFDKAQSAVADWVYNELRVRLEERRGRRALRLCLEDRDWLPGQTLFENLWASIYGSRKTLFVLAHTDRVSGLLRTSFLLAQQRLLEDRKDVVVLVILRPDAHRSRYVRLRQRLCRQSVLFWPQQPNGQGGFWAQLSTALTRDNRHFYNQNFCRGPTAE
The series can be described thus: IL-8 production by ELISA in 293 cells transfected with murine TLR9. It is filed as cell-based. The note with it: 293 cells transiently transfected with mTLR9, stimulated with 1.0 μM CpG-ODN 1668; 48 h. From the text:
Human fibroblast 293 cells were transiently transfected with mTLR9 and the NF-κB-luc construct (FIG. 2). Similar data was obtained for IL-8 production (not shown). Thus expression of TLR9 (human or mouse) in 293 cells results in a gain of function for CpG-DNA stimulation similar to hTLR4 reconstitution of LPS responses.
To generate stable clones expressing human TLR9, murine TLR9, or either TLR9 with the NF-κB-luc reporter plasmid, 293 cells were transfected in 10 cm plates (2×10^6 cells/plate) with 16 μg of DNA and selected with 0.7 mg/ml G418 (PAA Laboratories GmbH, Cölbe, Germany). The clones were also screened for IL-8 production or NF-κB-luciferase activity after stimulation with ODN. Four different types of clones were generated. • 293-hTLR9-luc: expressing human TLR9 and 6-fold NF-κB-luciferase reporter • 293-mTLR9-luc: expressing murine TLR9 and 6-fold NF-κB-luciferase reporter • 293-hTLR9: expressing human TLR9 • 293-mTLR9: expressing murine TLR9
It has been hypothesized that in order for DNA to enter the endosomal/lysosomal compartment a non-CpG dependent uptake receptor may be required. 293 cells were transiently transfected with mTLR9 treated with either medium only or 1.0 μM CpG-ODN 1668 (FIG. 15). […] IL-8 production was monitored after 48 h by ELISA.
(ELISA stands for enzyme-linked immunosorbent assay.)

A further series relates to TLR9. The series can be described thus: Expression of TLR9. The series is classed as cell-based. From the text: The invention also embraces agents which bind selectively to certain regulatory sequences associated with the murine TLR9 nucleic acid molecules described herein. The agents include polypeptides which bind to transcription and translation regulatory sequences of murine TLR9, and antisense nucleic acids, both of which are described in greater detail below. The agents can inhibit or increase murine TLR9 expression, as well as signaling activity (antagonists and agonists, respectively). Agents which bind selectively to regulatory sequences associated with the murine TLR9 nucleic acid molecules can be identified using methods familiar to those of skill in the art. For example, a promoter region including at least 100, 200, 300, 400, 500, or more nucleotides upstream (5′) of the coding region of murine TLR9 can be identified by isolating, from appropriate genomic DNA, such nucleotide sequences using the sequences of SEQ ID NO:1 or SEQ ID NO:2 as primers or as probes, and then inserting the promoter region DNA into an appropriate expression vector so as to control the expression of TLR9 or some other reporter gene, introducing the TLR9 promoter vector into an appropriate host cell, and screening for TLR9 or reporter expression by those cells following their incubation in the presence and absence of various test agents. […]

As to “5′-CTCCTAGTGGGGGTGTCCTAT-3′ (listed as DNA, chemistry not given here) [PZ2]”, the “antagonism of activation (IL-8 production)” value in the series with murine TLR9 is given as “in a dose-dependent manner, was able to antagonize the activation”.

B1: IL-4: the cytokine IL-4 (protein, UniProt P05112 25-153, looked up)
Interleukin-4: HKCDITLQEIIKTLNSLTEQKTLCTELTVTDIFAASKNTTEKETFCRAATVLRQFYSHHEKDTRCLGATAQQFHRHKQLIRFLKRLDRNLWGLAGLNSCPVKEANQSTLENFLERLKTIMREKYSKCSS
B1: the “expression of TLR9” value in the series with TLR9 is reported as “inhibits”.
